Patent publication US20140030201A1, “A SKIN LIGHTENING COMPOSITION” (priority 2010, published 2014)
Several values for one entry are separate records, joined by “and”; a condition that tells them apart may be missing. Equal entries are not always repeated. Where two headings read alike, the source gives them in different places. Blank lines part the entries; values can stand above or below the compound they belong to.

How the values were obtained:
[1] = system: B16 F10 cells (mouse melanoma cell line); conditions: 3 days; for Average μg melanin/cell (4 tests): media control 0.00030445, DMSO control 0.00028774; for % vehicle control (melanin per cell): media control 100, DMSO control 94.51056836
Experimental: B16 F10 cells (mouse melanoma cell line) were obtained from ATCC and grown in Lonza Biowhittaker BE12-662F media. Trypsin in ethylenediaminetetraacetic acid (EDTA) (Sigma T3924) and Dulbecco's Phosphate Buffered Saline (DPBS) (Sigma D8537) were used to split the cells. Plates were set up at a concentration of 2.5×10^4 cells per well in 48 well plates in Phenol Red free media (Sigma D1145).
After overnight incubation, media was removed and media with sulforaphane (available from Sigma-Aldrich Company Limited as at least 95% L-sulforaphane) in DMSO and ketoconazole in DMSO solutions were added. 500 μl of the media and solutions were added to 4 wells of a 48 well plate and the plates incubated at 37° C. for a further 3 days. Thereafter the melanin concentration and cell numbers were measured.
Melanin concentration was measured by making up standards each day and pipetting 100 μl of each standard in duplicate onto Greiner plates. For the blank plate Phenol Red free media was used. 100 μl from each well was also pipetted in duplicate onto Greiner plates and the plates read on a Dynex plate reader at 450 nm.
Cell numbers were measured by washing the wells twice with phosphated buffer solution (PBS). Then 1 ml of trypsin EDTA diluted in PBS at 1:10 v/v was added to each well and the wells observed for cell detachment. All media from each well was then collected the media assayed by adding 100 μl of the media to 9.9 ml of Coulter Isoton II diluent. Cell numbers were assessed using the Z1 Coulter Particle Counter.

B16 mouse melanoma cells = assay: Melanogenesis in B16 monolayer cultures (melanin normalised to total protein); assay type: cell-based; conditions: for Normalised melanin: 72 hours; for Inhibition of melanin production (in words): B16 monolayer cultures
Experimental: B16 mouse melanoma cells were cultured in Eagle's minimal essential medium (EMEM) supplemented with 10% foetal calf serum (FCS) and 2 mM L-glutamine at 37° C., 5% CO2 in T175 tissue culture flasks and were sub-cultured twice weekly using trypsin in EDTA. For assay, 25 000 cells per well in 500 μl volume were seeded to a 48 well plate and adhered overnight. The following morning standard culture media was replaced by EMEM, 10% FCS, 4 mM L-glutamine (500 μl) and test actives added. Cells were then incubated for 72 hours. At 72 after which the supernatants were removed and analysed for melanin content by spectrophometry at 450 nm against a reference standard curve. The B16 cell monolayer was dissolved in Triton™/PBS at 4° C. for 20 minutes, centrifuged at 13 000 rpm for 5 minutes at 4° C. and analysed for total protein content using a standard bicinchoninic acid assay (BCA) assay against a reference standard curve. Melanin results were normalised to total protein.
Each test active was applied in DMSO to n=3 cultures.

[2] = system: normal human melanocytes (NHM); assay: Growth and morphology of normal human melanocytes in monolayer culture (light microscopy); assay type: cell-based; conditions: 1 μM
Experimental: Primary human melanocytes were obtained from Invitrogen Cascade Biologics (HEMn-DP) and grown in Cascade melanocyte media (M-254CF-500+human melanocyte growth supplement (HMGS) supplement containing phorbol myristate acetate (PMA)) according to the manufacturer's instructions. Once established, cultures were routinely grown in T175 tissue culture flasks and could generally be passaged for use up to six (P6) or seven (P7) times. Once the cells reached about 70% confluence they were treated with trypsin, spun down and re-suspended in an appropriate volume of media ready for plating out. Cells seeded at 2×10^5 cells per well in a 6-well plate and incubated in 2 ml medium per well. Cells were allowed 16 hours to settle on the cover-slips before addition of treatments. Cells were treated for 5 days with DMSO vehicle or test actives dissolved in DMSO and light microscope images captured.
NHMs grown in monolayer cultures were treated with 1 μM ketoconazole for 5 days and assessed by light microscopy.

[3] = In-vitro delivery of ketoconazole into human skin (diffusion cells, tape stripping); assay type: in vitro ADME
Experimental: This study quantified the in-vitro human skin penetration after application of a cream formulation containing 2% (w/w) ketoconazole (Daktarin™ Gold). Eight diffusion cells were prepared (using female abdominal skin from three donors) plus three undosed control cells (for assay validation purposes). Epidermal membranes were used and integrity assessed by measuring electrical resistance. Permeation of active was measured over 24 hours following application of a target 5 mg/cm2 dose. Suitable liquid chromatography analytical assays were developed, with active peaks separated from formulation, skin and tape strip derived peaks.
Distribution within the skin at 24 hours was determined by measuring the levels of active within the stratum corneum (tape strips) and the epidermis plus any remaining lower stratum corneum (following tape stripping). The skin was wiped prior to tape stripping to remove active remaining at the surface. Levels in the donor chamber sealing grease and on the donor chambers were also measured (donor chamber wash).

[4] = system: MelanoDerm™ cultures (pigmented 3D-Living Skin Equivalent model); assay: Melanogenesis in MelanoDerm cultures (extracted melanin normalised to protein)
MelanoDerm™ cultures = assay: Histological analysis of MelanoDerm cultures (Masson-Fontana staining, MART-1 immuno-staining); conditions: 1 μM, 14 days, versus DMSO control
B16 melanoma cells = conditions: cited from earlier work
[5] = cream with 2% (w/w) ketoconazole (Daktarin Gold), 5 mg/cm2, 24 hours, n = 8
[6] = stratum corneum tape strips, cream with 2% (w/w) ketoconazole, 5 mg/cm2, 24 hours, n = 8
[7] = 20 μM, individual cultures, second DMSO control 0.187, 0.188, 0.172

Proportion of bipolar cells (normal cells) ([2]; 5 days, versus control, FIG. 3): practically identical to the control | Ketoconazole (% recovered), Donor chamber [3, 5]: 4.00 ± 1.26 % recovered | Ketoconazole (% recovered), Overall recovery [3, 5]: 99.4 ± 1.2 % recovered | Ketoconazole (% recovered), Permeation chamber [3, 5]: 3.49 ± 0.26 % recovered | Ketoconazole (% recovered), Surface of skin [3, 5]: 83.6 ± 2.4 % recovered | Ketoconazole (% recovered), Epidermis ([3]; includes any stratum corneum remaining after tape stripping, cream with 2% (w/w) ketoconazole, 5 mg/cm2, 24 hours, n = 8): 2.02 ± 0.74 % recovered | Ketoconazole (% recovered), Strip 1 ([3]; stratum corneum tape strip, cream with 2% (w/w) ketoconazole, 5 mg/cm2, 24 hours, n = 8): 4.92 ± 2.03 % recovered | Ketoconazole (% recovered), Strips 2-3 [3, 6]: 0.858 ± 0.255 % recovered | Ketoconazole (% recovered), Strips 4-6 [3, 6]: 0.318 ± 0.062 % recovered | Ketoconazole (% recovered), Strips 7-10 [3, 6]: 0.192 ± 0.046 % recovered
Compound: CC(=O)N1CCN(c2ccc(OC[C@H]3CO[C@](Cn4ccnc4)(c4ccc(Cl)cc4Cl)O3)cc2)CC1 (racemic) [ketoconazole]
Average μg melanin/cell (4 tests) ([1]; 1 μM): 0.0002916 μg melanin/cell | % vehicle control (melanin per cell) ([1]; 1 μM): 95.76 % vehicle control | Normalised melanin (B16 mouse melanoma cells; 5 μM, n=3 cultures, first DMSO control 0.186 ± 0.021): 0.173 ± 0.032 μg/mg protein | Normalised melanin (B16 mouse melanoma cells; 20 μM, n=3 cultures, first DMSO control 0.186 ± 0.021): 0.004 ± 0.001 μg/mg protein | Normalised melanin (B16 mouse melanoma cells; 50 μM, n=3 cultures, first DMSO control 0.186 ± 0.021): 0.007 ± 0.003 μg/mg protein | Inhibition of melanin production (in words) (B16 mouse melanoma cells; at 1 μM as printed): very effectively inhibits melanin production | Effect on viability of monolayer human melanocytes [2]: no detectable effect on the viability | Effect on NHM morphology or proliferation ([2]; 5 days, light microscopy, FIG. 3): no evidence that treatment had an adverse effect on NHM morphology or proliferation | Delivery into human skin (in words) ([3]; cream with 2% (w/w) ketoconazole, 24 hours): low but adequate delivery into human skin | Effect on viability of epidermal cultures ([4]; 1 μM): no detectable effect on the viability | Normalised melanin ([4]; 1 μM, 14 days, individual cultures, DMSO control 74.560, 103.845, 90.333): 58.573 μg/mg protein and 59.276 μg/mg protein and 57.292 μg/mg protein | Levels of extractable melanin (in words) ([4]; 1 μM, 14 days, versus DMSO control): consistently reduced the levels of extractable melanin | Inhibition of melanin production (in words) ([4]; MelanoDerm cultures, at 1 μM): very effectively inhibits melanin production | Melanin content of the basal melanocytes, Masson-Fontana staining (MelanoDerm™ cultures; FIG. 1): marked effect on the melanin content of the basal melanocytes | Presence of melanocytes, MART-1 immuno-staining (MelanoDerm™ cultures; FIG. 2): not due to the elimination of melanocytes

Compound: C[S+]([O-])CCCCN=C=S [L-sulforaphane, sulforaphane]
Average μg melanin/cell (4 tests) ([1]; 10 μM): 0.0002645 μg melanin/cell | % vehicle control (melanin per cell) ([1]; 10 μM): 86.89 % vehicle control

Compound: OC(Cn1cncn1)(Cn1cncn1)c1ccc(F)cc1F [flucoazole, fluconazole]
Normalised melanin (B16 mouse melanoma cells; [7]): 0.232 μg/mg protein and 0.214 μg/mg protein and 0.229 μg/mg protein | Inhibition of melanin production (in words) (B16 mouse melanoma cells; other azoles): did not effectively inhibit melanin production

Compound: c1c[nH]cn1 [imidazole]
Normalised melanin (B16 mouse melanoma cells; [7]): 0.180 μg/mg protein and 0.231 μg/mg protein and 0.240 μg/mg protein | Inhibition of melanin production (in words) (B16 mouse melanoma cells; other azoles): did not effectively inhibit melanin production

Compound: Clc1ccc(COC(Cn2ccnc2)c2ccc(Cl)cc2Cl)c(Cl)c1 (centres unmarked) [miconazole]
Cellular viability (B16 melanoma cells; accompanying the melanin decrease): decreased cellular viability | Melanin content (B16 melanoma cells; compared with untreated cells): dose dependently decreased | Tyrosinase activity (B16 melanoma cells; compared with untreated cells): dose dependently decreased

Compound: c1cocn1 [oxazole]
Normalised melanin (B16 mouse melanoma cells; [7]): 0.217 μg/mg protein and 0.210 μg/mg protein and 0.185 μg/mg protein | Inhibition of melanin production (in words) (B16 mouse melanoma cells; other azoles): did not effectively inhibit melanin production

Compound: c1cscn1 [thiazole]
Normalised melanin (B16 mouse melanoma cells; [7]): 0.228 μg/mg protein and 0.255 μg/mg protein and 0.236 μg/mg protein | Inhibition of melanin production (in words) (B16 mouse melanoma cells; other azoles): did not effectively inhibit melanin production
